Measured values from PubChem BioAssay AID602177 (NMMLSC, 2012).
The source made the active and inactive calls. The rule behind the calls is not given here.

Target: Botulinum neurotoxin type F (Clostridium botulinum) (UniProt P30996)
Test: BoNT/F light chain protease inhibitor potency, dose response, biochemical, cherry pick 1 compounds (AID 602177)
Conditions: multiplex microsphere protease cleavage assay, BoNT/F LC

Oc1[nH]c(N=C2N=c3ccccc3=N2)c2ccccc12
EC50: > 20 µM (inactive)
